Results: ChEMBL document CHEMBL1144447, “3-[4-(methylsulfonyl)phenyl]-5-(trifluoromethyl)(2-pyridyl) phenyl ketone as a potent and orally active cyclooxygenase-2 selective inhibitor: synthesis and biological evaluation” (J Med Chem, 2005)
pIC50: −log10 of the molar value.

Experiments:
[1] = tested on: Rattus norvegicus; experiment: In vivo antiinflammatory potency in rat air pouch model expressed as inhibition of white blood cell infiltration following oral dosage of 6.1 mg/kg ([…]); type: functional
[2] = target: Prostaglandin G/H synthase 1 (Homo sapiens, UniProt P23219); type: tissue-based, Blood
Description: In vitro inhibitory concentration against Prostaglandin G/H synthase 1 (COX-1) in human whole blood

[3] = tested on: Rattus norvegicus; experiment: In vivo antiinflammatory potency in rat air pouch model expressed as inhibition of PGE-2 production following oral dosage of 6.1 mg/kg ([…]); type: functional
[4] = target: T1, Prostaglandin G/H synthase 2 (Homo sapiens, UniProt P35354)
T1 sequence (P35354 whole entry): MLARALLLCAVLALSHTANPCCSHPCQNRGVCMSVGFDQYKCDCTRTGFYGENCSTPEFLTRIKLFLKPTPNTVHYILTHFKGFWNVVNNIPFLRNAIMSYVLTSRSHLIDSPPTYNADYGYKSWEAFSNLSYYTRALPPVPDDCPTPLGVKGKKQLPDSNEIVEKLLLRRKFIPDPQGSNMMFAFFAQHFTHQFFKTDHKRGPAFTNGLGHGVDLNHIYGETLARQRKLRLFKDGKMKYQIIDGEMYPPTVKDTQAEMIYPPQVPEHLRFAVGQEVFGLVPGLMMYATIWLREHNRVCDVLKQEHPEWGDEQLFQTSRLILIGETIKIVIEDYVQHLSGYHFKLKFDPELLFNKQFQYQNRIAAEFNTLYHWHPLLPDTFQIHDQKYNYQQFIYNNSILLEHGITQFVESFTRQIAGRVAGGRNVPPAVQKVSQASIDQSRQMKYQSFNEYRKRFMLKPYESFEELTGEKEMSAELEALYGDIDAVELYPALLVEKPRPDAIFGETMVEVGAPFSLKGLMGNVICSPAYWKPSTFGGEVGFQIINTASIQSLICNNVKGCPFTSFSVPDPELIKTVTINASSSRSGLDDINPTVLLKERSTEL
Description: In vitro inhibitory concentration against Prostaglandin G/H synthase 2 (COX-2) in human whole blood

[5] = species: Rattus norvegicus; experiment: animal or person; conditions: po, read-out: Inhibition
Description: In vivo antiinflammatory potency in rat air pouch model expressed as inhibition of PGE-2 production following oral dosage of 5.4 mg/kg (15 mmol)

[6] = species: Rattus norvegicus; experiment: animal or person; conditions: po, read-out: Inhibition; remark: listed apart in the source
Description: In vivo antiinflammatory potency in rat air pouch model expressed as inhibition of white blood cell infiltration following oral dosage of 5.4 mg/kg (15 mmol)

Sequence of Prostaglandin G/H synthase 1 (P23219 whole entry): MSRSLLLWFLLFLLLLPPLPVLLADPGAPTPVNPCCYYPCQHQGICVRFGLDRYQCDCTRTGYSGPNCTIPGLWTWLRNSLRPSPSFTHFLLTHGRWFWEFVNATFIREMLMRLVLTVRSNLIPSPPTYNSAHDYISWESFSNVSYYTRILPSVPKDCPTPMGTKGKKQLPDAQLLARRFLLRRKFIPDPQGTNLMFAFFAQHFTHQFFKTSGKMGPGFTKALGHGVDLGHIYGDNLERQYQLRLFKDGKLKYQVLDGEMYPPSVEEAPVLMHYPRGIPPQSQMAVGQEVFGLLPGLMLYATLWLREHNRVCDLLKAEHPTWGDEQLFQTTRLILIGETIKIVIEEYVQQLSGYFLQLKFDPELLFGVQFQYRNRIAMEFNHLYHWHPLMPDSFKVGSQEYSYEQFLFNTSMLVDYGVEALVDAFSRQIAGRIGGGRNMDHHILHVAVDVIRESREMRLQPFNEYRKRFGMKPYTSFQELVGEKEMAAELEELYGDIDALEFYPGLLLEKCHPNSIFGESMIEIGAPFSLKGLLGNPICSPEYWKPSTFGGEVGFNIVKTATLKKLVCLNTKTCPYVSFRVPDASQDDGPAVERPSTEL

| SMILES | inhibition in vivo at 6.1 mg/kg [1] [%] | pIC50 [2] | inhibition in vivo at 6.1 mg/kg [3] [%] | pIC50 [4] | inhibition in vivo at 5.4 mg/kg [5] [%] | inhibition in vivo at 5.4 mg/kg [6] [%] |
| --- | --- | --- | --- | --- | --- | --- |
| CS(=O)(=O)c1ccc(-c2cc(C(F)(F)F)cnc2C(=O)c2ccccc2)cc1 | 46.2 | 4.85 | 58.9 | 6.60 | – | – |
| Cc1ccc(-c2ncc(Cl)cc2-c2ccc(S(C)(=O)=O)cc2)cn1 [ETORICOXIB] | – | < 3.70 | – | – | 61 | 45 |
